Source: patent publication US20250144223A1, “PROTEIN DEGRADATION COMPOUND BASED ON NAMPT TARGET PROTEIN AND APPLICATION THEREOF” (GLUETACS THERAPEUTICS (SHANGHAI) CO., LTD., priority 2021, published 2025)

Key:
[1] = tested on: Jurkat; test: CellTiter-Glo Luminescent Cell Viability Assay, half inhibitory concentration (IC50) on tumor cell proliferation; type: cell-based; conditions: Homo sapiens, Jurkat cells, 72 h treatment
Procedure, shortened: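 Jurkat cells seeded at 20,000 cells/well in serum-containing RPMI1640, treated after 24 h with serially diluted compound for 72 h at 37 °C, 5% CO2. Viability read by CellTiter-Glo luminescence; IC50 calculated from growth-inhibition curves.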

[2] = tested on: HL60 tumor cells; test: In vitro cytotoxicity assay against tumor cells (DAPI staining, flow cytometry); type: cell-based; conditions: 10 nM, 4th day
Protocol: (§1) The tumor cells used herein were cultured in a cell culture medium at 37° C. in an incubator with 5% CO2, where the cell culture medium was supplemented with 10% FBS, as well as penicillin at a final concentration of 100 U/mL and streptomycin at a final concentration of 100 μg/mL. Prior to experimentation, all cells used were identified as correct cells by STR cells, and were negative for mycoplasma through routine testing.
(§2) MOLT4 and HL60 tumor cells were seeded separately in 12-well plates containing 1 mL of RPMI1640 medium, with a cell seeding density of 0.5×10^6 cells/mL. On the second day, the parent inhibitor FK866 and the compounds SIAIS630120 and SIAIS630121 of the present disclosure were individually dissolved in DMSO to obtain stock solutions of the respective compounds at a concentration of 10 μM. Subsequently, 1 μL of the 10 μM compound stock solution was added to 1 mL of cell culture medium to achieve a final concentration of 10 nM. The cells were treated continuously for 4 days, and cell viability was measured once daily during this period. Specifically, cells were sampled once a day, adjusted to a concentration of 1×10^6/mL using a cell staining buffer, stained with 4′,6-diamidino-2-phenylindole dihydrochloride (DAPI) (1:250), and then analyzed with a flow cytometer. Initially, the cells were gated based on differences in cell size, followed by DAPI staining to gate for dead cells. Finally, the cytotoxic efficiency was assessed by calculating the DAPI-positive ratio.

[3] = target: T1, intracellular NAMPT (iNAMPT) (Homo sapiens, UniProt P43490); test: Western blot, NAMPT protein degradation (DC50) in SW620, HT29, MCF-7, BEL7404, MOLT4, Jurkat and HL60 cells; type: cell-based; conditions: tumor cells, 24 h
T1 construct: assess the expression levels of NAMPT protein in tumor cells treated with the compounds of the present disclosure; endogenous in cells; host or cells: SW620, HT29, MCF-7, BEL7404, MOLT4, Jurkat, HL60
Protocol: (§3) The tumor cells used herein were cultured in a cell culture medium at 37° C. in an incubator with 5% CO2, where the cell culture medium was supplemented with 10% FBS, as well as penicillin at a final concentration of 100 U/mL and streptomycin at a final concentration of 100 μg/mL.
(§4) Tumor cells were seeded at a specific cell density in a 6-well plate containing 2 mL of RPMI1640/DMEM medium. For SW620, HT29, MCF-7, and BEL7404 cells, the seeding density was 1×10^6 cells per well, respectively; for MOLT4, Jurkat, and HL60 cells, the seeding density was 0.5×10^6 cells/mL. […] After 24 hours of compound treatment, the supernatant was removed, and cells were washed with PBS. The cells were then placed on ice and treated with protein lysis buffer containing protease and phosphatase inhibitors. The lysate was centrifuged at 12,000 RPM for 15 minutes at 4° C., and the supernatant was collected. Equal amounts of protein were mixed with 5×SDS, and after denaturation at 95° C. for 5 minutes, the samples were either frozen at −20° C. or subjected to direct protein electrophoresis. SDS-PAGE was performed using equal amounts of protein, and proteins were transferred to a nitrocellulose membrane at 95 V and 4° C. for 90 minutes. After membrane transfer, the membrane was blocked with TBST containing 5% skim milk powder (purchased from Beijing Cowin Bioscience Co., Ltd.) at room temperature for 1 hour. […]

[4] = target: T2, extracellular NAMPT (eNAMPT) (Homo sapiens, UniProt P43490); test: Western blot, eNAMPT protein degradation in HL60 and MOLT4 cell lines; type: cell-based
T2 construct: degradation effects of compounds SIAIS630120 and SIAIS630121 of the present disclosure on eNAMPT protein in HL60 and MOLT4 cell lines; endogenous in cells; host or cells: HL60, MOLT4
Protocol: as §3, §4

[5] = tested on: hematological tumors; conditions: animal models; cited from earlier work
[6] = clinical trial results; cited from earlier work
[7] = tested on: MOLT4 tumor cells; test: In vitro cytotoxicity assay against tumor cells (DAPI staining, flow cytometry); type: cell-based; conditions: 10 nM, 4th day; for cytotoxicity, more effective than FK866: difference to FK866
Protocol: as §1, §2

T2 sequence (P43490 whole entry): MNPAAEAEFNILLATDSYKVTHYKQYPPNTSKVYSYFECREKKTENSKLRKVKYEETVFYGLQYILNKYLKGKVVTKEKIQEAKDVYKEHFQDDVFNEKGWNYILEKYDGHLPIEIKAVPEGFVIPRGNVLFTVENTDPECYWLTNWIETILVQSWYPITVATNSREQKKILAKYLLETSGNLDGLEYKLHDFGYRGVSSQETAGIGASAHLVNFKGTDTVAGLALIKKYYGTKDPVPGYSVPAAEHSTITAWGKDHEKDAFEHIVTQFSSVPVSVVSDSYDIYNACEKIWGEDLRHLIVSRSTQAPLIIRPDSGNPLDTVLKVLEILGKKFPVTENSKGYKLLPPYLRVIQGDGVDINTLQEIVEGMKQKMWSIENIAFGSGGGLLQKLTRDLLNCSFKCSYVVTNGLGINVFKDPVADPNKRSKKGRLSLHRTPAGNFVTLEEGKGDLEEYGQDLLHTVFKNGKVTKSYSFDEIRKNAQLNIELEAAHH
T1 sequence (P43490 whole entry): as above

Structure (SMILES) | IC50 [1] [nM] | cytotoxic effect (DAPI-positive ratio) [2] | degradation of intracellular NAMPT (iNAMPT) protein [3] | degradation of extracellular NAMPT (eNAMPT) protein ([4]; 24 h, Western blot) | eNAMPT protein level compared to the DMSO control group ([4]; MOLT4 cells, 10 nM, FIG. 5) | long-term survival of mice [5] [%] | toxicities in clinical trial [6] | cytotoxicity (DAPI-positive ratio) [7] | cytotoxicity, more effective than FK866 [7] [%]
O=C(/C=C/c1cccnc1)NCCCCC1CCN(C(=O)c2ccccc2)CC1 [FK866] | 0.635 | less than 40% | cannot degrade iNAMPT and eNAMPT proteins | cannot degrade iNAMPT and eNAMPT proteins | higher levels of eNAMPT protein | 80 | dose-limiting toxicities such as thrombocytopenia | – | –
O=C(/C=C/c1cccnc1)NCCCCC1CCN(C(=O)c2ccc(N3CCN(CCCCCC#Cc4cccc5c4CN(C4CCC(=O)NC4=O)C5=O)CC3)cc2)CC1 (stereo not drawn) [SIAIS630120, (E)-N-(4-(1-(4-(4-(7-(2-(2,6-dioxopiperidin-3-yl)-1-oxoisoindolin-4-yl)hept-6-yn-1-yl)piperazin-1-yl)benzoyl)piperidin-4-yl)butyl)-3-(pyridin-3-yl)acrylamide] | 6.24 | 95% | – | – | – | – | – | approximately 50% | 20
O=C(/C=C/c1cccnc1)NCCCCC1CCN(C(=O)c2ccc(N3CCN(CCCCCCC#Cc4cccc5c4CN(C4CCC(=O)NC4=O)C5=O)CC3)cc2)CC1 (stereo not drawn) [SIAIS630121, (E)-N-(4-(1-(4-(4-(8-(2-(2,6-dioxopiperidin-3-yl)-1-oxoisoindolin-4-yl)oct-7-yn-1-yl)piperazin-1-yl)benzoyl)piperidin-4-yl)butyl)-3-(pyridin-3-yl)acrylamide] | 4.83 | 95% | – | – | – | – | – | approximately 50% | 20
